Test results taken from patent US20190298717A1 (BOARD OF REGENTS, THE UNIVERSITY OF TEXAS SYSTEM, priority 2016, published 2019).
Where two headings read alike, the source gives them in different places.

How the values were obtained:
[1] = system: Nrf2 knockdown SH-SY5Y cells; settings: Nrf2 siRNA knockdown, 24 h
Description: GSH is regulated by the rate-limiting enzyme GCL consisted of GCLc and GCLm subunits. […] The inventors then used extracellular lactate dehydrogenase cytotoxicity assay to measure cell survival.
Cell Viability and Cytotoxicity Assay. Cell growth was analyzed using the MTT cell viability assay. Briefly, at the end of incubation/treatment, MTT reagent was diluted in culture medium and aliquoted into each well. After incubation for 2 hours, the medium was aspirated and DMSO was aliquoted into each well to disrupt the cells and dissolve the intracellular MTT dyes. Absorbance was read at 570 nm wavelength in a 96-well plate reader. Cell toxicity was detected using a LDH cell toxicity assay kit (Promega, Fitchburg Wis.). This is a coupled enzymatic assay that detects a visible color signal initially described by Nachlas et. al. The reagent contained excess concentrations of lactate and NAD+as substrates to drive the LDH reaction and produce NADH. In the presence of diaphorase, NADH drives the enzyme-catalyzed conversion of iodonitro-tetrazolium violet to a red formazan product. Briefly, DMEM medium was withdrawn from each well of the plate after treatment and briefly centrifuged to get rid of floating cells or cell debris. […] The absorbance was read at 490 nm in a 96-well plate reader. […]

SH-SY5Y cells [2] = system: SH-SY5Y cells
Text: (§1) Results are expressed as means±SD from three independent experiments. […] Cell lysates were then subjected to Western blot analysis.
(§2) A cell titer glow luminescence assay was used to measure cell cytotoxicity. […] LC3, microtubule-associated protein 1 light chain 3, which is a homologue of Apg8p essential for autophagy in yeast, is processed posttranslationally into LC3-I in cytosol. LC3-I is then converted into LC3-II, which associates with autophagosome membranes. The ratio of LC3-II/LC3-I determines the status of the autophagy process.

LC3 = settings: 0, 5, 10 μM, ± bafilomycin 20 nM, 4 hours
Text: as §1, §2

C. elegans [3] = system: C. elegans
Description: C. elegans strains and maintenance. Animals were grown and maintained using standard C. elegans conditions at 20° C. on NGM plates and were fed E. coli strain HB101. N2 worms were used as wild-type and the following mutants and transgenic strains were used from Caenorhabditis Genetics Center (CGC, University of Minnesota): EU1 skn-1(zu67) (IV)/nT1[unc-?(n754); let-?], EU31 skn-1(zu135))/nT1[unc-?(n754); let-?], CL2166 dvIs19 [gst-4p::GFP::NLS], CL691 dvIs19 [gst-4p::GFP::NLS], skn-1(zu67)/nT [unc-?(n754) let-?], LG333 skn-1(zu135)/nT1[qIs51]; ldIs7[skn-1b/c::GFP], LG348 skn-1(zu135)/nT1[qIs51]; geIs9 [gpa-4p::skn-1b::GFP+rol-6(su1006)], LG357 skn-1(zu135)/nT1[qIs51]; geIs10 [ges-1p(long)::skn-1c::GFP+rol-6(su1006)], and LD1 ldIs7 [skn-1b/c::GFP+rol-6(su1006)].
Lifespan analysis. All lifespan assays were performed at 20° C. according to standard protocols described elsewhere. […] Worms were transferred to fresh plates every day after reaching adulthood, and every two days after reaching 10 days of age. Prodding test as described above was used to count the number of dead worms. Survival curve was plotted using Prism 7 and the significance of the curves calculated by Log-rank (Mantel-Cox) test.
RNA Interference. Synchronized L1 larvae were placed on NGM plates containing 1 mM IPTG and fed HT115 bacterial strain containing scramble or skn-1 RNAi plasmids. All the experiments were done at 20° C.

C. elegans [4] = system: C. elegans; remark: listed apart in the source
Description: Measurement of Reactive Oxygen Species. Superoxide concentration was measured by dihydroethidium (DHE). Black clear bottom 96 well plates were seeded with about 5000 HEK293 tau aggregate-negative (control) and aggregate-positive model cells per well and about 20000 SH-SY5Y cells (the NRF2 knockdown of both cell lines were also seeded). […] Fluorescence was measured by Spectramax Gemini XPS plate reader (Molecular Devices, Sunnyvale, Calif.) at 370 nm excitation and 420 nm emission wavelengths. […] Equal number of animals were transferred to a black bottom 96 well plate and fluorescence was measured same as above.

thioredoxin 1 (Trx1) = settings: SH-SY5Y, after 24 h and 48 h
Description: Trx1 reduces the cysteine residues critical for binding of Nrf2 to AREs (Hansen et al., 2004).
Western Blot Analysis. Protein expression was determined by Western blot analysis. Equal amount of protein from each sample was run in Tris-glycine SDS PAGE gel, followed by transferring to PVDF membrane. After blocking the membrane with 5% milk for 1 hour at room temperature, the membrane was incubated further for 2 hours with antibodies specific for target proteins: Nrf2, pNrf2(S40) from Novus (Littleton, Colo.); Keap1, HO-1, NQO1, GCLc, GCLm and lamin B1 from Cell Signaling (Danvers, Mass.); GAPDH from Santa Cruz (Dallas, Tex.); β-Actin from Thermo Fisher (Waltham, Mass.). The membrane was subsequently incubated with species-specific HRP-conjugated secondary antibody followed by incubation with chemiluminescence substrate and imaging. The band intensity of each of the target proteins was quantified using ImageQuant software (GE Healthcare, Sweden). Western blot analysis on worm lystaes was done similarly. […] Equal amounts of protein were run on the gel and SKN-1 protein level was detected using anti-GFP antibody.

SH-SY5Y cells [5] = assay: H2O2-EC50 of hydralazine and its analogs (protection from H2O2 stress); format: cell-based; settings: Homo sapiens
Description: To generate intracellular aldehydes, the inventors treated human neuroblastoma cell line (SH-SY5Y) with 100 μM hydrogen peroxide (H2O2) for 24 h. Carbonyl groups were quantified using 2,4-DNPH (dinitrophenylhydrazine) assay.
Cell Viability and Cytotoxicity Assay. Cell growth was analyzed using the MTT cell viability assay. Briefly, at the end of incubation/treatment, MTT reagent was diluted in culture medium and aliquoted into each well. After incubation for 2 hours, the medium was aspirated and DMSO was aliquoted into each well to disrupt the cells and dissolve the intracellular MTT dyes. Absorbance was read at 570 nm wavelength in a 96-well plate reader. Cell toxicity was detected using a LDH cell toxicity assay kit (Promega, Fitchburg Wis.). This is a coupled enzymatic assay that detects a visible color signal initially described by Nachlas et. al. The reagent contained excess concentrations of lactate and NAD+as substrates to drive the LDH reaction and produce NADH. In the presence of diaphorase, NADH drives the enzyme-catalyzed conversion of iodonitro-tetrazolium violet to a red formazan product. Briefly, DMEM medium was withdrawn from each well of the plate after treatment and briefly centrifuged to get rid of floating cells or cell debris. Then, the medium supernatant was mixed with equal volume of substrate/enzyme mixture included in the kit (lactate, NAD+, diaphorase and iodonitro-tetrazolium violet), followed by incubation at room temperature for 15 minutes before the addition of acetic acid to cease the reaction. The absorbance was read at 490 nm in a 96-well plate reader. […] Cell viability assay was performed using CellTiter-Glo assay.

Compound: NNc1nncc2ccccc12 [Hydralazine]
- protection from H2O2-induced cytotoxicity in Nrf2 knockdown cells (LDH) [1]: no protection
- protection against oxidative stress under proteasomal inhibition by MG132 (SH-SY5Y cells [2]; MG132 10 μM, H2O2 100 μM, 4 hours): does not have an impact
- protection against oxidative stress under autophagy inhibition with bafilomycin (SH-SY5Y cells [2]; bafilomycin 20 nM, H2O2 100 μM, 4 hours): significantly reduces the ability of hydralazine to protect cells
- concentration at which no toxicity was observed (SH-SY5Y cells [2]; human, 48 h): up to 25 μM
- concentration with significant decrease in cell viability compared to control (SH-SY5Y cells [2]; human, 48 h): ≥ 50 µM
- ratio of LC3-II/LC3-I (LC3): increase in the ratio of LC3-II/LC3-I
- Variation Compared to Control (%) (C. elegans [3]; EU1 skn-1(zu67), 100 μM Hyd (printed 100 IJM), FIG. 7G): +11.7%
- Variation Compared to Control (%) (C. elegans [3]; EU31 skn-1(zu135), 100 μM Hyd (printed 100 IlM), FIG. 7G): +3.3%
- Variation Compared to Control (%) (C. elegans [3]; LG348 (geIs9, skn-1b), 100 μM Hyd (printed 100 IJM), FIG. 7H): +10.8%
- Variation Compared to Control (%) (C. elegans [3]; LG357 (geIs10, skn-1c), 100 μM Hyd (printed 100 FM), FIG. 7H): +2.7%
- Variation Compared to Control (%) (C. elegans [3]; N2, 10 μM Hyd (printed 10 IJM), FIG. 7E): +4.82%
- lifespan extension (C. elegans [3]; N2, 100 μM): ≤ 25%
- Variation Compared to Control (%) (C. elegans [3]; N2, 100 μM Hyd (printed 100IJM), FIG. 7E): +24.4%
- Variation Compared to Control (%) (C. elegans [3]; N2, 200 μM Hyd (printed 200 IlM), FIG. 7E): +13.3%
- Variation Compared to Control (%) (C. elegans [3]; N2-Scramble RNAi, 100 μM (printed 100 IJM), FIG. 7F): +22.2%
- Variation Compared to Control (%) (C. elegans [3]; N2-skn-1 RNAi, 100 μM, FIG. 7F): −5.4%
- pro-longevity effect in skn-1(zu135) mutant and skn-1 knockdown worms (C. elegans [3]; in vivo): completely lost
- extension of medium and maximum lifespan (C. elegans [3]; worms treated with hydralazine): at least 25%
- superoxide concentration in N2 worms (C. elegans [4]): decreased superoxide concentration
- increase of the amount of Trx1 (thioredoxin 1 (Trx1)): 25%
- EC50 (SH-SY5Y cells [5]): 6.78 µM
